Test results as given in patent US20130289520A1, “TARGETED AND LIGHT-ACTIVATED CYTOSOLIC DRUG DELIVERY” (CHILDREN'S HOSPITAL BOSTON, priority 2010, published 2013).

Experiments:
LN-229 cells [1] = assay: Light-induced cytosolic release of NP cargo after endocytosis; format: cell-based, human; details: co-incubated overnight with PEI-PEG coated NPs; green light
Description: Following overnight NP endocytosis, cells were exposed to green excitation light (520-550 nm, MWIG3/TRITC filter) for durations ranging from 3 s to 120 s. […] Confocal micrographs were analyzed using the software package Image-J. Average cell fluorescence was determined by manual contouring of cell borders. Data were then imported into Matlab (The Mathworks) for analysis and plotting purposes. The amount of dye released in the cell cytosol following light stimulation was taken as the difference in average cell fluorescence before and after light exposure.

LN-229 cells [2] = assay: Light-activated cytosolic delivery of co-endocytosed dextran, NeutrAvidin and QD; format: cell-based, human; details: for cytosolic delivery of co-endocytosed macromolecule or particle after light stimulation of NPs: LN-229 cells, overnight co-endocytosis with NPs, TRITC-filtered light 30 to 120 s
Description: We then determined whether the NPs could liberate co-endocytosed macromolecules and nanoparticles. […] In this experiment, one set of LN-229 cells was incubated with NPs loaded with a releasable cargo dye (Alexa 546), while a second set was incubated with NPs carrying a dye covalently bound to their matrix during synthesis (Alexa633; so it could not be released). The two cells populations were then plated together, and incubated in the presence of dextran-FITC. […] The lower release kinetics of dextran in the case of the covalently labeled Alexa633-NPs may be explained by a lower excitation efficiency of this fluorophore through the TRITC filter set used for exposure.
LN-229 cells were biotinylated at room temperature with NHS-PEO4-biotin in D-PBS (500 μM, Pierce) supplemented with 10 mM glucose for 30 min, washed ×5 in D-PBS, and trypsinized in 0.01% trypsin/EDTA. Cells were collected with DMEM-10% FBS, centrifuged for 5 min at 1,000 rpm, and resuspended in a 50 μg/mL solution of dye-loaded NP-streptavidin in D-PBS-glucose. After 30 min, the cells were washed twice in D-PBS, resuspended in DMEM-10% FBS, and plated on 12 mm glass coverslips at a density of ˜10^5 cells/cm^2. Dextran-FITC (3 kDa, Sigma), NeutrAvidin-FITC (Pierce), or QD525-streptavidin conjugates (Invitrogen) were added to the cells at respective concentrations of 1 mg/mL, 5 μg/mL, and 2 nM. Cells were placed in a 37° C. incubator overnight with 5% CO2 to allow for coverslip attachment and simultaneous endocytosis of the surface-bound NP-streptavidin conjugates, as well as dextran, NeutrAvidin, or QDs present in the culture medium. After overnight endocytosis, cells were washed twice in D-PBS, and transferred to a live-cell imaging chamber for light stimulation and observation in D-PBS supplemented with 10 mM glucose.
For experiments involving two types of NPs, the orange pseudo-colored NPs were the post-synthesis Alexa 546 loaded NPs used in all other experiments, while the red pseudo-colored NPs were covalently bound to Alexa 633 incorporated during synthesis of the NPs (1 μL of MPTMS and 20 μL of a 10 mM stock solution of Alexa 633-maleimide were incubated overnight at room temperature, and premixed with the silicate precursors before injection into the reaction mixture. Unreacted dye was removed during the surfactant extraction process). The “orange” nanoparticles can release part of their cargo, while the dye is irreversibly bound to the silica matrix for the “red” NPs. After trypsinization, the biotinylated LN-229 cells were incubated separately with each type of NP, and remixed at 1:1 before plating and overnight incubation with dextran-FITC.

Compound: O=C(O)CN(CC(=O)O)Cc1cc2c(cc1O)Oc1cc(O)c(CN(CC(=O)O)CC(=O)O)cc1C21OC(=O)c2ccccc21 [calcein]
- cytosolic release of co-endocytosed compound after light exposure (LN-229 cells [1]): cytosolic release

Compound: NeutrAvidin: NeutrAvidin-FITC protein conjugate (Pierce)
- cytosolic delivery of co-endocytosed macromolecule or particle after light stimulation of NPs (LN-229 cells [2]): could also be delivered to the cell cytosol
- time to maximum cell fluorescence (LN-229 cells [2]; following the end of 120 s light exposure): > 10 min

Compound: dextran-FITC
- cytosolic delivery of co-endocytosed macromolecule or particle after light stimulation of NPs (LN-229 cells [2]): successfully mediated cytosolic delivery

Compound: quantum-dot-streptavidin conjugates: QD525-streptavidin conjugates (Invitrogen)
- cytosolic delivery of co-endocytosed macromolecule or particle after light stimulation of NPs (LN-229 cells [2]): remained clustered in the endo-lysosomal compartment
- cytosolic delivery of co-endocytosed macromolecule or particle after light stimulation of NPs (LN-229 cells [2]; listed as QD525-streptavidin): do not migrate into the cytosol
